Measurements published in US9108958B2, “Selective CCR2 antagonists” (Boehringer Ingelheim International GmbH, priority 2011, dated 2015).

Experiments:
CCR2 = molecular target: T1, CCR2 (Homo sapiens, UniProt P41597); assay: CCR2 receptor membrane binding assay ([125I]MCP-1, THP-1 cell membranes, SPA beads); details: THP-1 membranes, [125I]MCP-1, bound radioactivity after 8 h; read-out: hKi [nM](CCR2)
T1 construct: Membranes were prepared from THP-1 cells; endogenous in cells; host or cells: THP-1 (human acute monocytic leukaemia cells), membrane preparation
T1 sequence (P41597 1-360 isoform P41597-2): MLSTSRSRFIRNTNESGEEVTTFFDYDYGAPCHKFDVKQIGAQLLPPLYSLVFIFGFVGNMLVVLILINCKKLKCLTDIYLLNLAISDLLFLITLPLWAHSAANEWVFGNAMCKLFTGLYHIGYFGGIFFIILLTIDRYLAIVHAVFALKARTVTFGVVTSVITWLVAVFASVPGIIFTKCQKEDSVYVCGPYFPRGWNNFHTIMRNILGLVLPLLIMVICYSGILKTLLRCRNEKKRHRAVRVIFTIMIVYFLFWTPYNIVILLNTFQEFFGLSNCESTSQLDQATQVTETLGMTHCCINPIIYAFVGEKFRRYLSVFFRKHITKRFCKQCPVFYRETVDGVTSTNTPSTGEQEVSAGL
Protocol: The above exemplary substances have been tested for binding to CCR2 using a binding assay as outlined herein below:
THP-1 cells (human acute monocytic leukaemia cells) were cultured under standardized conditions at 37° C. and 5% CO2 in a humidified incubator. THP-1 cells were cultivated in RPMI 1640 medium (Gibco 21875) containing 1% MEM-NEAA (Gibso 11140) 2 mM L-glutamine, 1.5 g/L sodium bicarbonate, 4.5 g/L glucose, 10 mM HEPES and 1.0 mM sodium pyruvate, 90%; 10% fetal calf serum (FCS Gibco 10500-064).
Membranes were prepared from THP-1 cells. THP-1 cells were centrifuged at 300×g at 4° C. for 10 min. The cell pellet was resuspendet in Phosphate Buffer Saline (PBS, including 10 μM Pefabloc and a protease inhibitor mix ‘complete’, Boehringer Mannheim (1 tablet/50 ml)), to a concentration of […]. The membrane preparation was performed by disrupting the cells by nitrogen […] (at 50 bar, for 1 h) in a “Nitrogen Bombe” (Parr Instrument). Cell debris was removed by centrifugation (800×g at 4° C., 1 min) The supernatant was centrifuged at 80000×g, 4° C. for 30 min to sediment the cell membranes. Usually 50 mg of protein (Bradford assay) were yielded from 1×10E9 cells. The membranes were resuspendet in 25 mM HEPES, 25 mM MgCl2, 1 mM CaCl2, 10% Glycerine for storage in aliquots at −80° C. in 25 mM HEPES, 25 mM MgCl2, 1 mM CaCl2, 10% Glycerine and stored at −80° C.
(§1) Receptor Membrane Binding Assay:
Perkin Elmer NEX 332 Jod^125 MCP-1, Stock: 2200 Ci/mmol solved in 2000 μl assay buffer, stored at −20° C. THP-1 membrane were adjusted with 25 mM HEPES, pH 7.2; 5 mM MgCl2; 0.5 mM CaCl2; 0.2% BSA assay buffer to a concentration of 2.5 μg/15 μl. Amersham Biosciences PVT-WGA Beads (RPNQ0001) were adjusted with assay buffer to a concentration of 0.24 mg/30 μl. For preparation of the membrane-bead-suspension membranes and beads were incubated for 30 min at RT under rotation (60 rpm) with a ratio of 1:2. Test compounds dissolved in 100% DMSO to a concentration of 10 mM and are further diluted with 100% DMSO to 1 mM. All additional compound dilutions were obtained with assay buffer, final 1% DMSO. Compounds, membrane-bead-suspension and [^125I]MCP-1 (ca. 25000 cpm/10 μl) were incubated. Bound radioactivity was determined by scintillation counter after 8 h. Determination of affinity of test compounds (dissociation constant hKi) is calculated by iterative fitting of experimental data using the “easy sys” program, which is based on law of mass action (Schittkowski K. (1994), Numerische Mathematik, Vol. 68, 129-142).

human CCR5 = molecular target: T2, human CCR5 (Homo sapiens, UniProt P51681); assay: CCR5 receptor membrane binding assay ([125I]RANTES, CHO (Gα16) human CCR5 cell membranes, SPA beads); details: bound radioactivity after 6 h, read-out: hKi [nM] (CCR5)
T2 construct: expressed in transfected cells; host or cells: CHO cells co-expressing Gα16, under puromycin and zeocin selection; membrane preparation
Protocol: The above exemplary substances have been tested for binding to CCR5 using a binding assay as outlined herein below:
CHO, (Gα16) human CCR5 cells were cultured under standardized conditions at 37° C. and 5% CO2 in a humidified incubator. CHO (Gα16) human CCR5 cells were cultivated in Ham's F12 (Invitrogen; #31765068) supplemented with 10 μg/ml Puromycin (Invitrogen; #A11139-03), 200 μg/ml Zeocin (Invitrogen; #45-0003) and 10% FCS (Gibco; #10500-064).
Membranes were prepared from CHO (Gα16) human CCR5 cells. Cells were cultured on […] plates (Nunc; #166508) 2-3 days before membrane preparation (usually 80-100 plates to obtain 80 mg protein).
Cells were scraped off the plates with a big scraper and washed with 2×5 ml ice cold Phosphate Buffer Saline (PBS; Invitrogen; #14040-174). Cell suspension was collected in a glass bottle (on ice). Cell suspension was harvested at 1400 rpm and 4° C. for 10 min and washed in PBS. Cell pellet was resuspended in 40 ml PBS with protease inhibitor mix ‘complete’ (Roche; #11873580001; 1 tablet/50 ml).
For gentle cell disruption the membrane preparation was performed by using a homogenizer (potter). Cells were homogenized for 5-10 min.
Membranes were centrifuged at 1000 rpm and 4° C. for 5 min Supernatant (=membrane) was harvested in a new falcon tube and remaining cell pellet homogenized again for 5-10 min with PBS with protease inhibitor mix and centrifuged. Collected supernatant was centrifuged at 40000 rpm and 4° C. for 30 min to sediment the cell membranes.
The membranes were resuspended in 25 mM HEPES, 25 mM MgCl2, 1 mM CaCl2, 10% Glycerine for storage in aliquots at −80° C. Membranes were diluted to a concentration of 5 mg/ml (Bradford Assay).
as §1
[^125I]RANTES, Stock: 1825 Ci/mmol, 25 μCi (Bio Trend #A3-AI-676) was solved in 1000 μl assay buffer (100 mM NaCl; 10 mM MgCl2; 50 mM Tris-HCl; 1 mM EDTA; 0.1% BSA, pH 7.6), stored at −20° C.
CHO (Gα16) human CCR5 membrane were solved on ice and adjusted with assay buffer to a concentration of 2.5 μg/15 μl.
Amersham Biosciences PVT-WGA Beads (GE Healthcare; #RPNQ0001) were adjusted with assay buffer to a concentration of 8 mg/ml. For preparation of the membrane-bead-suspension, membranes and beads were incubated for 30 min at RT under rotation with a ratio of 1:2.
Test compounds dissolved in 100% DMSO to a concentration of 10 mM and are further diluted with 100% DMSO to 1 mM. All additional compound dilutions were obtained with assay buffer, final 1% DMSO. 7 μl compound dilution, 45 μl membrane-bead-suspension and 10 μl [^125I]RANTES (ca. 20000 cpm/10 μl) were incubated at RT. Bound radioactivity was determined by scintillation counter after 6 h. Determination of affinity of test compounds (dissociation constant Ki) is calculated by iterative fitting of experimental data using the “easy sys” program, which is based on law of mass action (Schittkowski K. (1994), Numerische Mathematik, Vol. 68, 129-142).

T2 sequence (P51681 whole entry): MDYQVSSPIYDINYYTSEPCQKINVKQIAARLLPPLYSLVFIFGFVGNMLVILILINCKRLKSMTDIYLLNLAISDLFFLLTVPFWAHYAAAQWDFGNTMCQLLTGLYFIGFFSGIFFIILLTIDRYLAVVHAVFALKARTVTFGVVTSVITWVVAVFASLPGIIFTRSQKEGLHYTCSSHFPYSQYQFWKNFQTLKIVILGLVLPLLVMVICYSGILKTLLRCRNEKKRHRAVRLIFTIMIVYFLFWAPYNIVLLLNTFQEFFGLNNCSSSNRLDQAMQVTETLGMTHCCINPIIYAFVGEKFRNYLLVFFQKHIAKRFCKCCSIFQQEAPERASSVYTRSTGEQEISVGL

| SMILES | Ki (CCR2) | Ki (human CCR5) |
| --- | --- | --- |
| CO[C@H]1COCC[C@H]1NC1CCN(C(=O)c2nc(-c3cc(C)on3)nc(N3CCc4cc(C(F)(F)F)ccc4C3)c2C)CC1 [Example 10] | 15 nM | 850 nM |
| CO[C@H]1COCC[C@H]1NC1CCN(C(=O)c2nc(C(F)(F)F)nc(N3CCc4ccc(C(F)(F)F)cc4C3)c2C)CC1 [Example 1] | 3 nM | 265 nM |
| CO[C@@H]1COCC[C@@H]1NC1CCN(C(=O)c2nc(-c3cc(C)on3)nc(N3CCc4cc(C(F)(F)F)ccc4C3)c2C)CC1 [Example 7] | 8 nM | 380 nM |
| CO[C@H]1COCC[C@H]1NC1CCN(C(=O)c2nc(C3CCOCC3)nc(N3CCc4cc(C(F)(F)F)ccc4C3)c2C)CC1 [Example 3] | 4 nM | 700 nM |
| Cc1cc(-c2nc(C(=O)N3CCC(N[C@@H]4CCOC[C@@H]4F)CC3)c(C)c(N3CCc4cc(C(F)(F)F)ccc4C3)n2)no1 [Example 6] | 20 nM | 17300 nM |
| CO[C@@H]1COCC[C@@H]1NC1CCN(C(=O)c2nc(C(F)(F)F)nc(N3CCc4ccc(C(F)(F)F)cc4C3)c2C)CC1 [Example 2] | 2 nM | 150 nM |
| Cc1c(C(=O)N2CCC(N[C@@H]3CCOC[C@@H]3F)CC2)nc(C2CCOCC2)nc1N1CCc2cc(C(F)(F)F)ccc2C1 [Example 8] | 11 nM | 5870 nM |

The next lines start with the values.

| Ki (CCR2) | Ki (human CCR5) | SMILES |
| --- | --- | --- |
| 2 nM | 160 nM | CO[C@@H]1COCC[C@@H]1NC1CCN(C(=O)c2nc(C(F)F)nc(N3CCc4ccc(C(F)(F)F)cc4C3)c2C)CC1 [Example 35] |
| 15 nM | 750 nM | Cc1cc(-c2nc(C(=O)N3CCC(N[C@H]4CCOC[C@H]4F)CC3)c(C)c(N3CCc4ccc(C(F)(F)F)cc4C3)n2)no1 [Example 27] |
| 17 nM | 3450 nM | Cc1c(C(=O)N2CCC(N[C@H]3CCOC[C@H]3F)CC2)nc(CF)nc1N1CCc2ccc(C(F)(F)F)cc2C1 (relative stereo) [Example 45] |
| 34 nM | 3680 nM | Cc1c(C(=O)N2CCC(N[C@H]3CCOC[C@@H]3F)CC2)nc(CF)nc1N1CCc2ccc(C(F)(F)F)cc2C1 (relative stereo) [Example 46] |
| 11 nM | 1350 nM | Cc1cc(-c2nc(C(=O)N3CCC(N[C@@H]4CCOC[C@@H]4F)CC3)c(C)c(N3CCc4ccc(C(F)(F)F)cc4C3)n2)no1 [Example 28] |
| 2 nM | 75 nM | CO[C@H]1COCC[C@H]1NC1CCN(C(=O)c2nc(CF)nc(Nc3ccc(Cl)c(Cl)c3)c2C)CC1 [Example 21] |
| 0.8 nM | 430 nM | CO[C@H]1COCC[C@H]1NC1CCN(C(=O)c2nc(C3CCOCC3)nc(N3CCc4ccc(C(F)(F)F)cc4C3)c2C)CC1 [Example 11] |
| 1 nM | 210 nM | Cc1c(NC[C@H]2CCC[C@@H](c3ccc(C(F)(F)F)cc3)O2)nc(C2CCOCC2)nc1C(=O)N1CCC(N[C@H]2CCOC[C@H]2F)CC1 [Example 16] |
| 7 nM | 230 nM | CSc1ccc([C@@H]2CCC[C@H](CNc3cc(C(=O)N4CCC(NC5CCOCC5F)CC4)nc(CF)n3)O2)cc1 (stereo partly shown) [Example 40] |
| 0.6 nM | 31 nM | CO[C@@H]1COCC[C@@H]1NC1CCN(C(=O)c2nc(CF)nc(Nc3ccc(Cl)c(Cl)c3)c2C)CC1 [Example 20] |
